Literature values, collected in US20110302824A1, “PROCESS FOR LIQUEFYING A CELLULOSIC MATERIAL” (SHELL OIL COMPANY, priority 2010, published 2011).

Settings: polarity of the (co-)solvent of the liquefaction medium; octanol-water

Row | Structure (SMILES) | Solvent Log P
1 | CC1CCC(=O)O1 (centres unmarked) [w/gVL, gamma-valerolactone] | −0.6
2 | CCCCCCCCCCCC [w/C12, dodecane] | 6.1
